Experimental data taken from US8895054B2, “Methods for joint lubrication and cartilage wear prevention making use of glycerophospholipids” (Technion Research and Development Foundation Ltd., priority 2006, dated 2014).
Where “and” joins values, the source holds several entries; their conditions need not be identical. Equal values may be shown once.

Experiments:
[1] = cited from earlier work; for Phase transition temperature (Tm): Table 1, SO to LD, phospholipid bilayers
[2] = test system: human articular cartilage; assay: Wear determination test (GAG content in wear debris); details: added to ISF 1:1; after run-in period; 60 N (4.8 MPa)
Protocol: • (i) phospholipid (PL) concentration, using the modified Bartlett assay^37, 38; • (ii) size distribution, for liposomes under 1 μm by dynamic light scattering using an ALV-NIBS High Performance Particle Sizer (Langen, Germany) at a scattering angle of 173°; and for liposomes above 400 nm by light diffraction using a Beckman Coulter LS Particle Size Analyzer 13-320 (Fullerton, Calif.), equipped with polarization intensity differential scattering (PIDS) to provide a dynamic detection range from 40 nm to 2000 μm; • (iii) partial specific adiabatic compressibility, by calculation from the density of the liposome dispersion (using a DMA 5000 density meter, Anton Paar, Graz, Austria) and the velocity of an 5 MHz ultrasonic wave traveling through it (using a UCC-12 ultrasonic velocimeter, NDT Instruments, Jerusalem, Israel), as described by Garbuzenko et al.^39; and • (iv) structure, using scanning electron microscopy (SEM). […] For the a qualitative evaluation of wear, the effect of friction tests on the concentration of total PL in cartilage, and on the structure of the cartilage surface was determined. PL extraction and quantification: Total PL were extracted from cartilage specimens before and after lubrication tests, using the Bligh and Dyer extraction procedure^41, 42. […]

[3] = LD phase (above Tm); cited from earlier work
[4] = test system: joints of osteoarthritis patients; details: injection into joints of osteoarthritis patients; cited from earlier work
[5] = Partial specific adiabatic compressibility of the lipid bilayer; format: physicochemical
Protocol: • (i) phospholipid (PL) concentration, using the modified Bartlett assay^37, 38; • (ii) size distribution, for liposomes under 1 μm by dynamic light scattering using an ALV-NIBS High Performance Particle Sizer (Langen, Germany) at a scattering angle of 173°; and for liposomes above 400 nm by light diffraction using a Beckman Coulter LS Particle Size Analyzer 13-320 (Fullerton, Calif.), equipped with polarization intensity differential scattering (PIDS) to provide a dynamic detection range from 40 nm to 2000 μm; • (iii) partial specific adiabatic compressibility, by calculation from the density of the liposome dispersion (using a DMA 5000 density meter, Anton Paar, Graz, Austria) and the velocity of an 5 MHz ultrasonic wave traveling through it (using a UCC-12 ultrasonic velocimeter, NDT Instruments, Jerusalem, Israel), as described by Garbuzenko et al.^39; and • (iv) structure, using scanning electron microscopy (SEM). Cartilage: Articular cartilage from healthy or osteoarthritis humans (aged 65 to 86 years) was obtained from femoral head fracture operations or total hip replacements. Tissue was classified as normal or pathological according to the visual diagnosis. For wear rate determination, only femoral heads with normal tissue were selected. Specimens were frozen at −20° C. until sample preparation in order to keep the mechanical properties close to those of live tissue. Pairs of cylindrical plugs, having 4 mm and 8 mm in diameter, each pair from the same region of the joint, were prepared. These cylindrical plugs, consisting of about 2 mm thick cartilage on top of about 8 mm long bone, were removed from the femoral head using a cork borer. The plugs were glued to holders through the bone part, using cyanoacrylate-based adhesive glue, leaving the cartilage projecting out of the holders. Thereafter, these plugs were refrozen at −20° C. until tested. Cartilage with completely intact and smooth surface was used. Friction and wear testing: Liposomes covering a wide range of sizes and concentrations, dispersed in HB, were screened as potential lubricants to reduce friction and wear between two discs of human cartilage at 24° C. and 37° C. […] For the a qualitative evaluation of wear, the effect of friction tests on the concentration of total PL in cartilage, and on the structure of the cartilage surface was determined. PL extraction and quantification: Total PL were extracted from cartilage specimens before and after lubrication tests, using the Bligh and Dyer extraction procedure^41, 42. […]

Molecule | SO-to-LD phase transition temperature, Tm [1] | Phase transition temperature (Tm) [1] [°C] | other results
CCCCCCCCCCCCCC(=O)OCC(COP(=O)(O)OCC(O)CO)OC(=O)CCCCCCCCCCCCC (stereo not drawn) [DMPG] | 23 °C | – | –
CCCCCCCCCCCCC/C=C/[C@@H](O)[C@H](COP(=O)([O-])OCC[N+](C)(C)C)NC(=O)CCCCCCCCCCCCCCC [N-palmitoyl SM] | 41.4 °C and 41.0 °C | – | –
hyaluronic acid [HA] | – | – | reduction of constant wear rate compared with ISF alone [2]: ~10%
CCCCCCCCCCCCCCC(=O)OC[C@H](COP(=O)([O-])OCC[N+](C)(C)C)OC(=O)CCCCCCCCCCCCCC [1,2-dipentadecanoyl-sn-glycero-3-phosphocoline] | 33.0 °C | – | –
CCCCCCCCCCCCCCCC(=O)OCC(COP(=O)(O)OCC(O)CO)OC(=O)CCCCCCCCCCCCCCC (stereo not drawn) [DPPG] | 41.4 °C | – | –
CCCCCCCCCCCCCCCC(=O)OC[C@H](COP(=O)([O-])OCC[N+](C)(C)C)OC(=O)CCCCCCCCCCCCCCC [DPPC, 1,2-dipalmitoyl-sn-glycero-3-phosphocholine] | 41.4 °C | 41.4 | water molecules per headgroup [3]: ~9.7 water molecules per headgroup; duration of mobility improvement [4]: up to 14 weeks; side effects [4]: without major side effects; partial specific adiabatic compressibility, K ([5]; 24° C.): 28.0 ×10^−6 mL/(g-atm); partial specific adiabatic compressibility, K ([5]; 37° C.): 31.2 ×10^−6 mL/(g-atm)
CCCCCCCC/C=C\CCCCCCCC(=O)OC[C@H](COP(=O)([O-])OCC[N+](C)(C)C)OC(=O)CCCCCCC/C=C\CCCCCCCC [DOPC, 1,2-dioleoyl-sn-glycero-3-phosphocholine] | – | −21 | –
CCCCCCCCCCCCCC(=O)OC[C@H](COP(=O)([O-])OCC[N+](C)(C)C)OC(=O)CCCCCCCCCCCCC [DMPC, 1,2-dimyristoyl-sn-glycero-3-phosphocholine] | 23.2 °C and 23 °C | 23.2 | water molecules per headgroup [3]: ~9.7 water molecules per headgroup; partial specific adiabatic compressibility, K ([5]; 24° C.): 46.4 ×10^−6 mL/(g-atm); partial specific adiabatic compressibility, K ([5]; 37° C.): 50.7 ×10^−6 mL/(g-atm)
